# According to patent US9765018B2, “IDO inhibitors” (BRISTOL-MYERS SQUIBB COMPANY, priority 2013, dated 2017):
# Target: IDO (Homo sapiens (Human), UniProt P14902)
# Test: Kynurenine assay in IFN-γ-stimulated Hela cells
# Format: cell-based
# Conditions: 20 h, read-out: Hela Kyurenine (IC50)
# Protocol: Reagents: Hela cells (ATCC, CCL-2)
# IFNg (R&D, 28-IF-100)—resuspend at 10 ug/mL in PBS with 0.1% BSA 30% TCA
# Ehrlich reagent (2% w/v p-dimethylaminobenzaldehyde in glacial acetic acid)
# Cell Lines and Culture Conditions
# Hela cancer cell lines were acquired from the American Type Culture Collection. Cells were maintained in phenol red free-RPMI1640 medium containing high glucose and L-glutamine (Invitrogen) supplemented with 10% fetal bovine serum (FBS; Invitrogen). Cell cultures were incubated at 37° C., 5% CO2, and 100% humidity.
# Cell Treatment and Kynurenine Assay
# Hela cells were seeded on 96-well plates (40,000 cells per well) and allowed to adhere for 5-6 hours. Cells were then treated with vehicle (DMSO) or with IDO inhibitor at a top dose of 30 μM (3-fold dilution all the way down to 1.5 nM). A final concentration of 100 ng/mL of human recombinant IFN-γ (R&D, 28-IF-100) was immediately added to the cells to stimulate IDO expression. Treated cells were then incubated for 20 hours at 37° C. At the end of the 20 h incubation, reactions were terminated by the addition of 30% TCA to each well. Plates were incubated for 30 minutes at 50° C. to hydrolyze N-formylkynurenine to kynurenine. Cells were centrifuged 10 minutes at 2400 rpm. 100 ul of supernatants were transferred to new 96 flat well plates and mixed with 100 ul Ehrlich reagent. The resulting solution was incubated 10 minutes at RT. Absorbance at 490 nm was read using Spectra Max 384 (Molecular Devices).
# Chain of IDO (P14902 whole entry): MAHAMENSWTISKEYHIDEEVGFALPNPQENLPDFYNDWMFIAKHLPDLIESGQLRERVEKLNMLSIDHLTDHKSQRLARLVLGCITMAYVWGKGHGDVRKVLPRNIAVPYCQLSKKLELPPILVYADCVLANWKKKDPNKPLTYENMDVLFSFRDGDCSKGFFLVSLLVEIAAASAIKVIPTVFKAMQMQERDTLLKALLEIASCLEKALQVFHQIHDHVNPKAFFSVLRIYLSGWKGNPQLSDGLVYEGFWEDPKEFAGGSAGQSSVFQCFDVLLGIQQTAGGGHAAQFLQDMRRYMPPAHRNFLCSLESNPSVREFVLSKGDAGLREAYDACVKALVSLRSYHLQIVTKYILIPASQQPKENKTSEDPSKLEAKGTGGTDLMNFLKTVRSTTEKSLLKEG
row,Compound,IC50 [nM]
1,"COc1ccc(-c2ccc(Oc3ccccc3C(C)(C)C)c(NC(=O)Nc3ccccc3)c2)cc1C(=O)O [Example 78, 4′-(2-(tert-butyl)phenoxy)-4-methoxy-3′-(3-phenylureido)-[1,1′-biphenyl]-3-carboxylic acid]",80
2,"COc1ccc(-c2ccc(O[C@@H]3CCCC[C@H]3C)c(NC(=O)Nc3ccc(C)cc3)c2)cc1C(=O)O (relative stereo) [Example 134, 4-methoxy-4′-((trans)-2-methylcyclohexyloxy)-3′-(3-p-tolylureido)biphenyl-3-carboxylic acid]",1390
3,"Cc1ccc(NC(=O)Nc2cc(-c3ccccc3C(=O)NS(C)(=O)=O)ccc2Oc2ccccc2C(C)(C)C)cc1 [Example 6, 4′-(2-tert-Butylphenoxy)-N-(methylsulfonyl)-3′-(3-p-tolylureido)biphenyl-2-carboxamide]",730
4,"CC(C)(C)c1ccccc1Oc1ccc(-c2ccccc2C(=O)O)cc1NC(=O)Nc1ccccc1Cl [Example 155, 4′-(2-tert-butylphenoxy)-3′-(3-(2-chlorophenyl)ureido)biphenyl-2-carboxylic acid]",450
5,"Cc1ccc(NC(=O)Nc2cc(-c3ccccc3-c3nnn[nH]3)ccc2Oc2ccccc2C(C)(C)C)cc1 [Example 4, 1-(4-(2-tert-Butylphenoxy)-2′-(1H-tetrazol-5-yl)biphenyl-3-yl)-3-p-tolylurea]",30
6,"COc1ccc(NC(=O)Nc2cc(-c3ccc(OC)c(C(=O)O)c3)ccc2Oc2ccccc2C(C)(C)C)c(C)c1 [Example 93, 4′-(2-(tert-butyl)phenoxy)-4-methoxy-3′-(3-(4-methoxy-2-methylphenyl)ureido)-[1,1′-biphenyl]-3-carboxylic acid]",620
7,"CCc1ccc(NC(=O)Nc2cc(-c3ccc(OC)c(C(=O)O)c3)ccc2Oc2ccccc2C(C)(C)C)cc1 [Example 67, 4′-(2-tert-butylphenoxy)-3′-(3-(4-ethylphenyl)ureido)-4-methoxybiphenyl-3-carboxylic acid]",580
8,"COc1ccc(-c2ccc(Oc3ccccc3Cl)c(NC(=O)Nc3ccccc3C(F)(F)F)c2)cc1C(=O)O [Example 52, 4′-(2-chlorophenoxy)-4-methoxy-3′-(3-(2-(trifluoromethyl)phenyl)ureido)biphenyl-3-carboxylic acid]",1270
9,"COc1ccc(-c2ccc(Oc3ccccc3C(C)(C)C)c(NC(=O)Nc3ccc4c(c3)CCC4)c2)cc1C(=O)O [Example 102, 4′-(2-(tert-butyl)phenoxy)-3′-(3-(2,3-dihydro-1H-inden-5-yl)ureido)-4-methoxy-[1,1′-biphenyl]-3-carboxylic acid]",220
10,"CCCCNC(=O)Nc1cc(-c2ccc(OC)c(C(=O)O)c2)ccc1Oc1ccccc1C(C)(C)C [Example 90, 4′-(2-(tert-butyl)phenoxy)-3′-(3-(n-butyl)ureido)-4-methoxy-[1,1′-biphenyl]-3-carboxylic acid]",260
11,"COc1ccc(-c2ccc(Oc3ccccc3C(C)(C)C)c(NC(=O)NC3CCCCC3)c2)cc1C(=O)O [Example 91, 4′-(2-(tert-butyl)phenoxy)-3′-(3-(cyclohexyl)ureido)-4-methoxy-[1,1′-biphenyl]-3-carboxylic acid]",250
12,"COc1ccc(-c2ccc(Oc3ccccc3C(C)(C)C)c(NC(=O)Nc3cccc(Cl)c3C)c2)cc1C(=O)O [Example 98, 4′-(2-(tert-butyl)phenoxy)-3′-(3-(3-chloro-2-methylphenyl)ureido)-4-methoxy-[1,1′-biphenyl]-3-carboxylic acid]",160
13,"COc1ccc(-c2ccc(Oc3ccccc3C(C)(C)C)c(NC(=O)Nc3ccc(N(C)C)cc3)c2)cc1C(=O)O [Example 101, 4′-(2-(tert-butyl)phenoxy)-3′-(3-(4-(dimethylamino)phenyl)ureido)-4-methoxy-[1,1′-biphenyl]-3-carboxylic acid]",1010
14,"COc1ccc(-c2ccc(Oc3ccccc3Cl)c(NC(=O)Nc3ccccc3C)c2)cc1C(=O)O [Example 53, 4′-(2-chlorophenoxy)-4-methoxy-3′-(3-o-tolylureido)biphenyl-3-carboxylic acid]",2180
15,"CCc1ccccc1Oc1ccc(-c2ccc(OC)c(C(=O)O)c2)cc1NC(=O)Nc1ccccc1C [Example 56, 4′-(2-ethylphenoxy)-4-methoxy-3′-(3-o-tolylureido)biphenyl-3-carboxylic acid]",130
16,"COc1ccc(-c2ccc(Oc3ccccc3C(C)(C)C)c(NC(=O)Nc3cccc(F)c3)c2)cc1C(=O)O [Example 84, 4′-(2-(tert-butyl)phenoxy)-3′-(3-(3-fluorophenyl)ureido)-4-methoxy-[1,1′-biphenyl]-3-carboxylic acid]",160
17,"COc1ccc(-c2ccc(Oc3ccccc3Cl)c(NC(=O)Nc3cccc(C)c3)c2)cc1C(=O)O [Example 50, 4′-(2-chlorophenoxy)-4-methoxy-3′-(3-m-tolylureido)biphenyl-3-carboxylic acid]",900
18,"4′-(2-(tert-butyl)phenoxy)-3′-(3-(4-fluorophenyl)ureido)-4-methoxy-[1,1′-biphenyl]-3-carboxylic acid [Example 107]",320

# Now from value to compound:
row,IC50 [nM],Compound
1,420,"CC(C)(C)c1ccccc1Oc1ccc(-c2cc(C(=O)O)ccc2F)cc1NC(=O)Nc1ccc(OC(F)(F)F)cc1 [Example 261, 4′-(2-tert-butylphenoxy)-6-fluoro-3′-(3-(4-(trifluoromethoxy)phenyl)ureido) biphenyl-3-carboxylic acid]"
2,500,"O=C(Nc1ccccc1Cl)Nc1cc(-c2ccc(C(=O)O)c(Cl)c2)ccc1Oc1ccccc1C(F)(F)F [Example 203, 3-chloro-3′-(3-(2-chlorophenyl)ureido)-4′-(2-(trifluoromethyl)phenoxy)biphenyl-4-carboxylic acid]"
3,1060,"O=C(Nc1cc(-c2cc(Cl)cc(C(=O)O)c2)ccc1Oc1ccccc1)Nc1ccccc1C(F)(F)F [Example 250, 5-chloro-4′-phenoxy-3′-(3-(2-(trifluoromethyl)phenyl)ureido) biphenyl-3-carboxylic acid]"
4,1540,"CC(C)(C)c1ccccc1Oc1ccc(-c2ccc(C(=O)O)cc2)cc1NC(=O)Nc1ccccc1C(F)(F)F [Example 210, 4′-(2-tert-butylphenoxy)-3′-(3-(2-(trifluoromethyl)phenyl)ureido) biphenyl-4-carboxylic acid]"
5,2210,"O=C(Nc1ccccc1Cl)Nc1cc(-c2cccc(C(=O)O)c2)ccc1Oc1ccccc1C(F)(F)F [Example 259, 3′-(3-(2-chlorophenyl)ureido)-4'-(2-(trifluoromethyl)phenoxy) biphenyl-3-carboxylic acid]"
6,740,"Cc1cccc(NC(=O)Nc2cc(-c3cc(F)cc(C(=O)O)c3)ccc2Oc2ccccc2C(C)(C)C)c1 [Example 251, 4′-(2-tert-butylphenoxy)-5-fluoro-3′-(3-m-tolylureido) biphenyl-3-carboxylic acid]"
7,1740,"CC(C)(C)c1ccccc1Oc1ccc(-c2ccc(C(=O)O)cc2)cc1NC(=O)Nc1ccc(C(F)(F)F)cc1 [Example 209, 4′-(2-tert-butylphenoxy)-3′-(3-(4-(trifluoromethyl)phenyl)ureido) biphenyl-4-carboxylic acid]"
8,1070,"COc1cc(-c2ccc(Oc3ccccc3C(C)(C)C)c(NC(=O)Nc3cccc(C)c3)c2)ccc1C(=O)O [Example 212, 4′-(2-tert-butylphenoxy)-3-methoxy-3′-(3-m-tolylureido) biphenyl-4-carboxylic acid]"
9,210,"CC(C)(C)c1ccccc1Oc1ccc(-c2ccccc2-c2nnn[nH]2)cc1NC(=O)Nc1ccccc1Cl [Example 179, 1-(4-(2-tert-butylphenoxy)-2′-(1H-tetrazol-5-yl)biphenyl-3-yl)-3-(2-chlorophenyl)urea]"
10,1630,"COc1cc(-c2ccc(Oc3ccccc3C(C)(C)C)c(NC(=O)Nc3ccccc3C)c2)ccc1C(=O)O [Example 211, 4′-(2-tert-butylphenoxy)-3-methoxy-3′-(3-o-tolylureido) biphenyl-4-carboxylic acid]"
11,1230,"O=C(Nc1ccc(C(F)(F)F)cc1)Nc1cc(-c2ccc(C(=O)O)c(Cl)c2)ccc1Oc1ccccc1C(F)(F)F [Example 207, 3-chloro-4′-(2-(trifluoromethyl)phenoxy)-3′-(3-(4-(trifluoromethyl)phenyl)ureido) biphenyl-4-carboxylic acid]"
12,1050,"Cc1cccc(NC(=O)Nc2cc(-c3ccccc3-c3nnn[nH]3)ccc2Oc2ccccc2C(C)(C)C)c1 [Example 182, 1-(4-(2-tert-butylphenoxy)-2′-(1H-tetrazol-5-yl)biphenyl-3-yl)-3-m-tolylurea]"
13,1690,"CC(C)(C)c1ccccc1Oc1ccc(-c2ccc(C(=O)O)cc2)cc1NC(=O)Nc1ccccc1Cl [Example 202, 4′-(2-tert-butylphenoxy)-3′-(3-(2-chlorophenyl)ureido)biphenyl-4-carboxylic acid]"
14,310,"Cc1ccc(NC(=O)Nc2cc(-c3ccc(C(=O)O)cc3)ccc2Oc2ccccc2C(C)(C)C)cc1 [Example 256, 4′-(2-tert-butylphenoxy)-3′-(3-p-tolylureido) biphenyl-4-carboxylic acid]"
15,1020,"Cc1cccc(NC(=O)Nc2cc(-c3cc(Cl)cc(C(=O)O)c3)ccc2Oc2ccccc2C(C)(C)C)c1 [Example 239, 4′-(2-tert-butylphenoxy)-5-chloro-3′-(3-m-tolylureido) biphenyl-3-carboxylic acid]"
